Source: patent US20260174780A1, “BISMUTH-THIOL COMPOSITIONS AND METHODS FOR TREATING INFLAMMATORY DISEASES” (Microbion Corporation, priority 2022, published 2026)
Entries after “also recorded” stand apart in the source; their conditions may differ. Read-outs that look alike come from different tables or passages of the source.

Legend:
[1] = test system: neutrophils; assay: In vitro model of neutrophil recruitment to the lung (transmigration, supernatant and conditioned media cytokines); format: cell-based, human; conditions: for viability of the cells: CF-conditioned media and normal media (LTB4); for neutrophil transmigration / recruitment: CF-conditioned media and LTB4
Description: FIG. 6 provides a description of the assay for in vitro modeling of neutrophil recruitment to the lung.
FIG. 7 provides a summary of the process for comparing cellular and soluble inflammatory markers in vitro.
The neutrophils used are primary cells harvested from normal healthy volunteers immediately prior to the study. Cellular and soluble inflammatory markers were compared in vitro as described in FIG. 7.

[2] = test system: lung tissue of M. abscessus infected mice; assay: Lung histopathology in chronic M. abscessus infection study; format: in vivo, SCID/Beige mice
Description: After 28 days of treatment with BisEDT, animals were euthanized by CO2 and secondary cardiac puncture to collect whole blood for quantitation of BisEDT concentration. Lungs and spleens from the CFU mice were homogenized with 1:1 H2O:Dey-Englev neutralizing broth to deactivate BisEDT. CFUs were determined after serial dilution. Mice for histology and the lung pair split, one half in formalin the other half weighed and snap frozen in liquid N2 to determine tissue concentration of BisEDT.
Samples for histology were processed by the Veterinary Diagnostic Laboratory. Slides were stained with hematoxylin-eosin (HE stain) for general pathology as well as a slide for acid-fast stain to highlight the mycobacterial infection in lung tissue.

[3] = Particle size by Nanosizer/Zetasizer Nano-S (volumetric mean diameter); format: physicochemical; conditions: resuspended in 2% Pluronic F-68, sonicated; two measurements
Description: The dried particulate matter was characterized to assess the particle size properties. Briefly, particles were resuspended in 2% Pluronic® F-68 (BASF, Mt. Olive, NJ) and the suspension was sonicated for 10 minutes in a water bath sonicator at standard setting prior to analysis using a Nanosizer/Zetasizer Nano-S particle analyzer (model ZEN1600 (without zeta-potential measuring capacity), Malvern Instruments, Worcestershire, UK) according to the manufacturer's recommendations.

[4] = Earlier 28-day tolerability work in rats; conditions: 28 days
[5] = test system: cytokines in bronchoalveolar lavage fluid (BALF); assay: Cytokines in BALF of rats after a single inhaled dose of BisEDT; format: in vivo, Sprague-Dawley rats; conditions: day 8 compared to day 2; single low (1 mg/kg) or high (7 mg/kg) inhaled dose
Description: Two concentrations (low: 1 mg/kg; high: 7 mg/kg) of BisEDT were evaluated by inhalation in rats.
Bronchoalveolar lavage fluid (BALF) samples from day 2 (D2) and day 8 (D8) post treatment were analyzed for the expression of cytokines.
Protocol: Sprague-Dawley rats were randomly assigned to a study group based on body weight. Adult, male Sprague-Dawley rats (n=6 per group) were exposed to the aerosolized test article (TA) with a single dose on Study Day 1. Groups 1, 2, and 3 were exposed by inhalation to 1 mg/kg (targeted presented dose) of BisEDT sample 1, BisEDT sample 2, or BisEDT sample 3, respectively. Groups 4, 5, and 6 were exposed by inhalation to 7 mg/kg (targeted presented dose) of BisEDT sample 1, BisEDT sample 2, or BisEDT sample 3, respectively. Animals were necropsied on Study Days 2, 4, and 8, and terminal blood collections were conducted at that time.
Blood Processing: All blood samples were placed into a tube containing K3EDTA, and mixed thoroughly. Following mixing, blood obtained at the time of euthanasia was divided in half. Half of the blood sample was stored frozen without further processing pending bioanalysis. The remaining half was placed on wet ice before being processed to plasma by centrifugation at 2500×g for ≥10 minutes at 2 to 8° C. Plasma was aliquoted into a cryovial(s), snap frozen in liquid nitrogen, and stored at −80° C.±10° C. until cytokine analysis was performed using ELISA kits following manufacturer's instructions.

[6] = test system: M. abscessus clinical strains; assay: Activity in the macrophage system against M. abscessus clinical strains; format: cell-based; conditions: all three clinical strains tested
[7] = test system: TGF-β; assay: TGF-β expression in plasma of M. avium-infected mice; format: in vivo; conditions: 28 days treatment, low, med and high dose, compared to vehicle
Description: Protocol: M. avium infection was initiated in mice, and 3 weeks were allowed to pass to establish the infection. The animals were treated for 28 days and grouped according to dosage: vehicle, low dose pravibismane, med dose pravibismane, and high dose pravibismane. At the end of treatment, plasma samples were collected for analysis.

[8] = test system: AIM2 inflammasome; assay: qPCR of AIM2 in BEAS-2B cells; format: cell-based, human; conditions: 0.5-4 μg/mL, 24 hours
Description: Protocol: BEAS-2B cells were grown in tissue culture flasks and a 24-well plate was seeded with 2×10^5 cells/well and incubated at 37° C. and 5% CO2 for 48 hours. Select wells were treated with either 4 μg/mL, 2 μg/mL, 1 μg/mL, or 0.5 μg/mL BisEDT or left untreated as a control and incubated at 37° C. and 5% CO2 for 24 hours. Cell culture supernatant was collected from each well and stored at −20° C. until further ELISA analysis. On the day of the ELISA assays to determine the expression of each cytokine, cell culture supernatant was thawed, and the assays performed following the manufacturer's instructions. Cells were collected for RNA isolation using Qiagen RNeasy kit using manufacturers' instructions. Briefly, genomic DNA was degraded with DNase (Roche) and samples were incubated at 37° C. for 1 hour followed by 3 μL DNase inactivation reagent (Invitrogen) incubated at 37° C. for 2 minutes. Samples were centrifuged at maximum speed for 5 minutes to remove the inactivation reagent. RNA concentration and quality was evaluated using a Nanodrop. RNA samples were utilized to generate cDNA using cDNA synthesis kit (Bio-Rad). qPCR for AIM2 and actin (housekeeping gene) was conducted using SYBR green kit (Bio-Rad) along with standards.

C1C[S][Bi]([S]CC[S][Bi]2[S]CC[S]2)[S]1 [BisEDT, 1,2-(Bis(1,3-dithia-2-bismolane)thio)ethane]
activity of caspase-1 (FLICA) [1]: slightly reduced | IL-18 level in transmigration supernatant ([1]; 6 hours, compared to vehicle): appreciably lower level | viability of the cells [1]: very high level of viability | viability of the cells ([1]; listed as pravibismane): no effect on cell viability | IL-18 in conditioned media ([1]; compared to vehicle): down-regulated | neutrophil transmigration / recruitment ([1]; compared to vehicle): lower level of neutrophil transmigration; also recorded: inhibits neutrophil recruitment | neutrophil transmigration / recruitment ([1]; compared to vehicle, listed as pravibismane): reduced transmigration efficiency | IL-6 in conditioned media ([1]; conditioned media): Very minor changes | expression of VEGF ([1]; conditioned media): small increase | interferon-gamma in conditioned media ([1]; conditioned media): Very minor changes | activity of caspase-1 (FLICA) ([1]; listed as pravibismane): slight reduction | IL-10 secretion ([1]; summary): substantially increased | CCL4 (macrophage inflammatory protein) ([1]; transmigration supernatant, 6-hour time point): reduced | inflammatory process caused by the test article in lung ([2]; M. abscessus infected, BisEDT treated mice): no indication of an inflammatory process caused by the BisEDT | lung histomorphologic observation ([2]; high-dose (1000 μg/kg/day), FIG. 5D): the inflammatory response was receding and clear airways were observed | lung histomorphologic observation ([2]; low-dose (200 μg/kg/day), FIG. 5C): decrease of inflammatory infiltrate compared to untreated control and a decrease in hemorrhage | peak VMD [3]: about 1.3 microns | dose highly tolerated without adverse effects [4]: 59 µg/kg/day | expression of IL-1β in BALF [5]: Consistent reduction | expression of IL-17A in BALF [5]: Consistent reduction | expression of TNF-α in BALF [5]: Consistent reduction | activity against M. abscessus in the macrophage system [6]: very active (bactericidal) | expression of TGF-β [7]: consistent reduction | AIM2 inflammasome expression (AIM2/Actin copy number) [8]: inhibit AIM2 inflammasome expression
